Values of other authors as cited in US4323647A, “Steric hindrance enzyme immunoassay” (University of Miami, priority 1980, dated 1982).

Biological target: beta-galactosidase isolated from E. coli (Escherichia coli, UniProt P00722)
Conditions: potent competitive inhibitor; Lai, et al., Biophys. Res. Comm. 54: 463-468 (1973)

Chain of beta-galactosidase isolated from E. coli (P00722 2-1024 limits assumed): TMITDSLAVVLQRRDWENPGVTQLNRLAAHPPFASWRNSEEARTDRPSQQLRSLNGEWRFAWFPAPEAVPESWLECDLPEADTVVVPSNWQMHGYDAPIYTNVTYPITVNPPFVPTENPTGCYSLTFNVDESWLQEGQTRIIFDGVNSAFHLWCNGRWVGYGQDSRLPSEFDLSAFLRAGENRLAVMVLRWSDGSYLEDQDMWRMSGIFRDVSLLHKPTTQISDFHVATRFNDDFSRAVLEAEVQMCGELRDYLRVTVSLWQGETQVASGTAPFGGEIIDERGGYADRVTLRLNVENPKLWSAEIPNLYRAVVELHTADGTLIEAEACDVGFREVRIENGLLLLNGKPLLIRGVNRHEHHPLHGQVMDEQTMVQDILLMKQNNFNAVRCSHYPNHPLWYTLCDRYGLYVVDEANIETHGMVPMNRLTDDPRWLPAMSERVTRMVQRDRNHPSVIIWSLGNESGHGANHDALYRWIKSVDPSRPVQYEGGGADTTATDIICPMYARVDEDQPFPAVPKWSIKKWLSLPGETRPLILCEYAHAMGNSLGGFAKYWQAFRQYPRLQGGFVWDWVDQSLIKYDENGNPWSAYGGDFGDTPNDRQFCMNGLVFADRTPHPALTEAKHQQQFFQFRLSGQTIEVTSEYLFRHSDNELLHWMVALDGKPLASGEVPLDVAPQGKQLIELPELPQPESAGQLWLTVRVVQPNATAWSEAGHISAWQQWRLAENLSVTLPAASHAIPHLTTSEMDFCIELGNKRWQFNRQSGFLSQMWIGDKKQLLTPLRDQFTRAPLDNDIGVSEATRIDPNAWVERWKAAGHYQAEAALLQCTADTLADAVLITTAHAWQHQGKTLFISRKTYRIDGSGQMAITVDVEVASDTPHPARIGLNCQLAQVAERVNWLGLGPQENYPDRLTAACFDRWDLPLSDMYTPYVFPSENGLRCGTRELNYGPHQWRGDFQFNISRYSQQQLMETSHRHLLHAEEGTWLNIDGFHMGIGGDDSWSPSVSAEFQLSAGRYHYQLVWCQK

## N[C@@H]1O[C@H](CO)[C@H](O)[C@H](O)[C@H]1O [beta-D-galactosylamine]
  Ki: 225 µM
